Read-outs that look alike come from different tables or passages of the source. Each block holds one molecule with its values, some of them ahead of it.
How the values were obtained:
human TLR8 = human TLR8 (Homo sapiens (Human), UniProt Q9NR97); experiment: TLR8 inhibition reporter assay (HEK-Blue SEAP);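 note: SEAP driven by IFN-β minimal promoter carrying NF-κB and AP-1 sites, compounds dosed 0.05 nM to 50 µM for 22 h, inhibition scaled between agonist-plus-DMSO and reference-inhibitor wells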
human TLR9 = human TLR9 (Homo sapiens (Human), UniProt Q9NR96); experiment: TLR9 inhibition reporter assay (HEK-Blue SEAP);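 note: SEAP driven by an IFN-β minimal promoter with NF-κB and AP-1 sites, read after 22 h, compounds dosed 0.05 nM–50 µM, inhibition scaled between agonist plus DMSO and reference-inhibitor wells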
human TLR7 = human TLR7 (Homo sapiens (Human), UniProt Q9NYK1); experiment: TLR7 inhibition reporter assay (HEK-Blue SEAP); assay type: cell-based
[1] = read-out: TLR8 IC50, HEK-Blue cells overexpressing human TLR8, SEAP reporter, R848 15.9 μM
[2] = read-out: TLR9 IC50, HEK-Blue cells overexpressing human TLR9, SEAP reporter, ODN2006 5 nM
[3] = HEK-Blue cells overexpressing human TLR7, SEAP reporter, gardiquimod 7.5 μM
[4] = TLR8 IC50, HEK-Blue cells overexpressing human TLR8, R848 15.9 μM stimulation, SEAP reporter
[5] = TLR9 IC50, HEK-Blue cells overexpressing human TLR9, ODN2006 5 nM stimulation, SEAP reporter
[6] = HEK-Blue cells overexpressing human TLR7, gardiquimod 7.5 μM stimulation, SEAP reporter
[7] = read-out: TLR8 IC50, HEK-Blue cells overexpressing human TLR8, R848 15.9 μM stimulation, SEAP reporter
[8] = read-out: TLR9 IC50, HEK-Blue cells overexpressing human TLR9, ODN2006 5 nM stimulation, SEAP reporter
[9] = TLR8 IC50, HEK-Blue human TLR8 cells, R848 15.9 μM
[10] = TLR9 IC50, HEK-Blue human TLR9 cells, ODN2006 5 nM
[11] = HEK-Blue human TLR7 cells, gardiquimod 7.5 μM
[12] = read-out: TLR8 IC50, HEK-Blue human TLR8 cells, R848 15.9 μM
[13] = read-out: TLR9 IC50, HEK-Blue human TLR9 cells, ODN2006 5 nM

Chain of human TLR9 (Q9NR96 26-1032): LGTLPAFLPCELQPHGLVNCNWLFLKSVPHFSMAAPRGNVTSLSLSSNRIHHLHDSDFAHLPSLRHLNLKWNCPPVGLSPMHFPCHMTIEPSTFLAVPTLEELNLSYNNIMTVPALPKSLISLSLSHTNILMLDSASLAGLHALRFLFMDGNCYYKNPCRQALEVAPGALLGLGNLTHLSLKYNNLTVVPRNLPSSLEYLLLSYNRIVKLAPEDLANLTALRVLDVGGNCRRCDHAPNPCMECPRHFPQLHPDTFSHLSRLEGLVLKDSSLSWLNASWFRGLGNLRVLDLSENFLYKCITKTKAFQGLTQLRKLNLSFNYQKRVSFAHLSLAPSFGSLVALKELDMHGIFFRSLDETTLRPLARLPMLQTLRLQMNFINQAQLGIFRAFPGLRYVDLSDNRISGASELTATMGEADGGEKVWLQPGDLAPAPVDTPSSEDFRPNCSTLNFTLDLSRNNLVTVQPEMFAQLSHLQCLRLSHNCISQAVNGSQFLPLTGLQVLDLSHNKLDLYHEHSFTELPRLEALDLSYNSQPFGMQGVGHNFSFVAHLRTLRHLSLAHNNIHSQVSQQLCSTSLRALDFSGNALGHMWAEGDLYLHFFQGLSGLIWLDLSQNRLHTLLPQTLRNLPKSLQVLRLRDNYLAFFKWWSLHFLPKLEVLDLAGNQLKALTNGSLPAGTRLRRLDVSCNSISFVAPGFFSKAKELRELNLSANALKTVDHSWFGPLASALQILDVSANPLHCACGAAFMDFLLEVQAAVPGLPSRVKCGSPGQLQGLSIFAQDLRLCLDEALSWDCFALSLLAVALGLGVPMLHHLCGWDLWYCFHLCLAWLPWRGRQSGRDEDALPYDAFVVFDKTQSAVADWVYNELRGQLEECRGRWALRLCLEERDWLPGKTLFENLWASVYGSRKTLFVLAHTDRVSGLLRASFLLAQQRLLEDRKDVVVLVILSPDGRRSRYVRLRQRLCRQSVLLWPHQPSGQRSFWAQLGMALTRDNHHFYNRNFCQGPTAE
Chain of human TLR8 (Q9NR97 27-1041): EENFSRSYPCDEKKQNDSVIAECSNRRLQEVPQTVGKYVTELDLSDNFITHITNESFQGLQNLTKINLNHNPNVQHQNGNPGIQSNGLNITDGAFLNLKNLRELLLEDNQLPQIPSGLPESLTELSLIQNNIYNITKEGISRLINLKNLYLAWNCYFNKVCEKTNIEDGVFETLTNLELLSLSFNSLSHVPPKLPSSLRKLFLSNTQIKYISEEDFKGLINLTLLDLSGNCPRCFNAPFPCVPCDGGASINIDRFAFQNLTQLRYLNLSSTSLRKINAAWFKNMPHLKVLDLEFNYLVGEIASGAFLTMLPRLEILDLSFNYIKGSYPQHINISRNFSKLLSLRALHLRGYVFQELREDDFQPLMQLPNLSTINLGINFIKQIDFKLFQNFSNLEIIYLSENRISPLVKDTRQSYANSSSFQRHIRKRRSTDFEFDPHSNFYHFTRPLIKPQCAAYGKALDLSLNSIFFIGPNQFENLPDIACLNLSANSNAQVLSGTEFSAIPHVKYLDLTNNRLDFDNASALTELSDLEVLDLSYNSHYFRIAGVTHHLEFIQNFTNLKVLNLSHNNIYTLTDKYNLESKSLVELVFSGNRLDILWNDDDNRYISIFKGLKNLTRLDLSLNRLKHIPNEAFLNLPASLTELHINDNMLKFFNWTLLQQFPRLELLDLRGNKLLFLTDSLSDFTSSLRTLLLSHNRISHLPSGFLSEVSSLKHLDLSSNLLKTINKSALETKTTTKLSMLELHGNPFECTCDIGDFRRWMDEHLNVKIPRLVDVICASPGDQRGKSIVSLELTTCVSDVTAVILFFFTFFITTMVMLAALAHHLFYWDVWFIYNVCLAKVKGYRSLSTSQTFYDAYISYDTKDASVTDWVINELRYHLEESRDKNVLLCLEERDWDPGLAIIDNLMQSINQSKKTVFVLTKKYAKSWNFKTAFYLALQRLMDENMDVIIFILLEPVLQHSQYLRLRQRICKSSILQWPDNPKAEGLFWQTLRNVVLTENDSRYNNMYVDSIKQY
Chain of human TLR7 (Q9NYK1 27-1049): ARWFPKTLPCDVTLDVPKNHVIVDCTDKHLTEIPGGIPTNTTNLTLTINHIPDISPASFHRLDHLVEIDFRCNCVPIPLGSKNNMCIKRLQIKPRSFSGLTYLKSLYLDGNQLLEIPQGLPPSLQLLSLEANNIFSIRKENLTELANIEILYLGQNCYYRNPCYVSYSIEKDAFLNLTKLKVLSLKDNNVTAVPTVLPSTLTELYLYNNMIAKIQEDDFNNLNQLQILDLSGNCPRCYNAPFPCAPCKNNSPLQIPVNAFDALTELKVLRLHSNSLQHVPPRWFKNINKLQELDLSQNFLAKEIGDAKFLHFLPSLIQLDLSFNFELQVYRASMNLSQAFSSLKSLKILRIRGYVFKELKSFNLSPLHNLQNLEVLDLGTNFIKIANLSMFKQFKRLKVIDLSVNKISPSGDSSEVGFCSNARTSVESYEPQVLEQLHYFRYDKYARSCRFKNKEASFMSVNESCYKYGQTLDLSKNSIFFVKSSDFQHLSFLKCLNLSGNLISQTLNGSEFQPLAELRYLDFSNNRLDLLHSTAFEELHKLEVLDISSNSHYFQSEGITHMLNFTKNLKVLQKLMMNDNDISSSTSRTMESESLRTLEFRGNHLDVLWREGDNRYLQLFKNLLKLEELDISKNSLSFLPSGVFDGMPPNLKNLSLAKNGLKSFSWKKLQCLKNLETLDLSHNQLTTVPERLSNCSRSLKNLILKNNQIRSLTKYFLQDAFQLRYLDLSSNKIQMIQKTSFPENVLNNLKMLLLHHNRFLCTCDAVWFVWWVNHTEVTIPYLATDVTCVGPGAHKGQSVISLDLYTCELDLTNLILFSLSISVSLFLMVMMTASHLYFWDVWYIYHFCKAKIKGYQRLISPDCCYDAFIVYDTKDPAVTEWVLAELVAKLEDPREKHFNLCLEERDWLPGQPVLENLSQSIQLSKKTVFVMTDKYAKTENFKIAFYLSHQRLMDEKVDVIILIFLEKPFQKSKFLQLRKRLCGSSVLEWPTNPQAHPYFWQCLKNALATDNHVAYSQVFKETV

Molecule: 4-((3-isopropyl-2-(8-methoxy-[1,2,4]triazolo[1,5-a]pyridin-6-yl)-1H-pyrrolo[3,2-b]pyridin-5-yl)oxy)-N,N-dipropylcyclohexan-1-amine [Example 605]
- IC50 (human TLR8; [1]): 17 nM
- IC50 (human TLR9; [2]): 4.24 µM
- IC50 (human TLR7; [3]): 13 nM

Molecule: COc1cc(-c2[nH]c3ccc(C4CCC(N)C4)nc3c2C(C)C)cn2ncnc12 (racemic) [Example 7, 3-(3-isopropyl-2-(8-methoxy-[1,2,4]triazolo[1,5-a]pyridin-6-yl)-1H-pyrrolo[3,2-b]pyridin-5-yl)cyclopentan-1-amine]
- IC50 (human TLR8; [4]): 52 nM
- IC50 (human TLR9; [5]): 8.12 µM
- IC50 (human TLR7; [6]): 4.4 nM

Molecule: COc1cc(-c2[nH]c3ccc(C4CCC(N)C4)nc3c2C(C)C)cn2ncnc12 (racemic) [Example 9, 3-(3-isopropyl-2-(8-methoxy-[1,2,4]triazolo[1,5-a]pyridin-6-yl)-1H-pyrrolo[3,2-b]pyridin-5-yl)cyclopentan-1-amine]
- IC50 (human TLR8; [4]): 8.2 nM
- IC50 (human TLR9; [5]): 2.25 µM
- IC50 (human TLR7; [6]): 1.7 nM

Molecule: Cc1c(-c2[nH]c3ccc(N4CCC(NC5COC5)C4)nc3c2C(C)C)cn2ncnc2c1C (racemic) [Example 164, 1-(2-(7,8-dimethyl-[1,2,4]triazolo[1,5-a]pyridin-6-yl)-3-isopropyl-1H-pyrrolo[3,2-b]pyridin-5-yl)-N-(oxetan-3-yl)pyrrolidin-3-amine]
- IC50 (human TLR8; [7]): 2 nM
- IC50 (human TLR9; [8]): 19.8 µM
- IC50 (human TLR7; [6]): 33 nM

Molecule: COc1cc(-c2[nH]c3ccc(C4CCC(N)C4)nc3c2C(C)C)cn2ncnc12 (single isomer, unassigned) [Example 8, 3-(3-isopropyl-2-(8-methoxy-[1,2,4]triazolo[1,5-a]pyridin-6-yl)-1H-pyrrolo[3,2-b]pyridin-5-yl)cyclopentan-1-amine]
- IC50 (human TLR8; [4]): 21 nM
- IC50 (human TLR9; [5]): 8.55 µM
- IC50 (human TLR7; [6]): 4.7 nM

Molecule: [2H]C([2H])([2H])N(CC(=O)N1CCN(c2ccc3[nH]c(-c4cn5ncnc5c(C)c4C)c(C(C)C)c3n2)CC1)C([2H])([2H])[2H] (single isomer, unassigned) [Example 831]
- IC50 (human TLR8; [9]): 2.3 nM
- IC50 (human TLR9; [10]): 8.55 µM
- IC50 (human TLR7; [11]): 1.5 nM

Molecule: [2H]C1([2H])N(C(=O)CN(C)C)C([2H])([2H])C([2H])([2H])N(c2ccc3[nH]c(-c4cn5ncnc5c(C)c4C)c(C(C)C)c3n2)C1([2H])[2H] (single isomer, unassigned) [Example 858]
- IC50 (human TLR8; [9]): 1.3 nM
- IC50 (human TLR9; [10]): 7.13 µM
- IC50 (human TLR7; [11]): 1.1 nM

Molecule: [2H]C([2H])([2H])N(CC(=O)N1C([2H])([2H])C([2H])([2H])N(c2ccc3[nH]c(-c4cn5ncnc5c(C)c4C)c(C(C)C)c3n2)C([2H])([2H])C1([2H])[2H])C([2H])([2H])[2H] (single isomer, unassigned) [Example 859]
- IC50 (human TLR8; [9]): 1.5 nM
- IC50 (human TLR9; [10]): 7.31 µM
- IC50 (human TLR7; [11]): 0.97 nM

Molecule: [2H]C([2H])([2H])N(C([2H])([2H])[2H])C([2H])([2H])C(=O)N1CCN(c2ccc3[nH]c(-c4cn5ncnc5c(C)c4C)c(C(C)C)c3n2)CC1 (single isomer, unassigned) [Example 888]
- IC50 (human TLR8; [9]): 0.59 nM
- IC50 (human TLR9; [10]): 12.2 µM
- IC50 (human TLR7; [11]): 1.2 nM

Molecule: [2H]C([2H])(C(=O)N1CCN(c2ccc3[nH]c(-c4cn5ncnc5c(C)c4C)c(C(C)C)c3n2)CC1)N(C)C (single isomer, unassigned) [Example 889]
- IC50 (human TLR8; [9]): 0.76 nM
- IC50 (human TLR9; [10]): 9.84 µM
- IC50 (human TLR7; [11]): 1.5 nM

Molecule: [2H]C([2H])(C(=O)N1C([2H])([2H])C([2H])([2H])N(c2ccc3[nH]c(-c4cn5ncnc5c(C)c4C)c(C(C)C)c3n2)C([2H])([2H])C1([2H])[2H])N(C)C (single isomer, unassigned) [Example 890]
- IC50 (human TLR8; [9]): 1.4 nM
- IC50 (human TLR9; [10]): 14.7 µM
- IC50 (human TLR7; [11]): 1.8 nM

Molecule: Cc1c(-c2[nH]c3ccc(N4CC(N5CCOCC5)C4)nc3c2C(C)C)cn2ncnc2c1C [Example 39, 4-(1-(2-(7,8-dimethyl-[1,2,4]triazolo[1,5-a]pyridin-6-yl)-3-isopropyl-1H-pyrrolo[3,2-b]pyridin-5-yl)azetidin-3-yl)morpholine]
- IC50 (human TLR8; [7]): 4.8 nM
- IC50 (human TLR7; [6]): 40 nM

Molecule: CC(C)c1c(-c2cn(C)c3ncccc23)[nH]c2ccc(N3CCC(N(CC#N)CC#N)CC3)nc12 [Example 52]
- IC50 (human TLR8; [7]): 20 nM
- IC50 (human TLR7; [6]): 7.9 nM

Molecule: COc1cc(-c2[nH]c3ccc(N4CCN(C5CCOC5)CC4)nc3c2C(C)C)cn2ncnc12 (stereo not drawn) [Example 103]
- IC50 (human TLR8; [7]): 2.6 nM
- IC50 (human TLR7; [6]): 7.3 nM

Molecule: CC(C)c1c(-c2cc(CO)c3ncnn3c2)[nH]c2ccc(C3CCC(NCC(=O)N(C)C)CC3)nc12 (stereo not drawn) [Example 216]
- IC50 (human TLR8; [7]): 18 nM
- IC50 (human TLR9; [8]): 0.416 µM

Molecule: Cc1cnc(CNC2CCC(c3ccc4[nH]c(-c5cc(CO)c6ncnn6c5)c(C(C)C)c4n3)CC2)cn1 (stereo not drawn) [Example 217]
- IC50 (human TLR8; [7]): 8.6 nM
- IC50 (human TLR9; [8]): 0.522 µM

Molecule: CC(C)c1c(-c2cc(CO)c3ncnn3c2)[nH]c2ccc(C3CCC(NCC(=O)N(C)C)CC3)nc12 (stereo not drawn) [Example 222]
- IC50 (human TLR8; [7]): 21 nM
- IC50 (human TLR9; [8]): 0.657 µM

Molecule: COc1cc(-c2[nH]c3ccc(C4CCC(NCC5(S(C)(=O)=O)CC5)CC4)nc3c2C(C)C)cn2ncnc12 (stereo not drawn) [Example 223]
- IC50 (human TLR8; [7]): 1.4 nM
- IC50 (human TLR9; [8]): 0.485 µM

Molecule: COc1cc(-c2[nH]c3cc(C)c(C4CCC(NCC(C)(C)O)CC4)nc3c2C(C)C)cn2ncnc12 (stereo not drawn) [Example 321]
- IC50 (human TLR8; [7]): 3 nM
- IC50 (human TLR9; [8]): 1.04 µM

Molecule: COCCNC1CCC(c2nc3c(C(C)C)c(-c4cc(OC)c5ncnn5c4)[nH]c3cc2C)CC1 (stereo not drawn) [Example 335]
- IC50 (human TLR8; [7]): 4 nM
- IC50 (human TLR9; [8]): 1.93 µM

Molecule: Cc1cc(-c2[nH]c3ccc(C4CCN(C5COC5)CC4)nc3c2C(C)C)cn(C)c1=O [Example 528]
- IC50 (human TLR8; [1]): 23 nM
- IC50 (human TLR9; [2]): 5.7 µM

Molecule: Cc1c(-c2[nH]c3ccc(N4C[C@H]5C[C@@H](C4)N5C(=O)CN(C)C)nc3c2C(C)C)cn2ncnc2c1C [Example 754]
- IC50 (human TLR8; [1]): 1.7 nM
- IC50 (human TLR9; [2]): 5.43 µM

Molecule: Cc1c(-c2[nH]c3ccc(N4C[C@H]5C[C@@H](C4)N5C(C)C)nc3c2C(C)C)cn2ncnc2c1C [Example 755]
- IC50 (human TLR8; [1]): 6.2 nM
- IC50 (human TLR9; [2]): 3.73 µM

Molecule: Cc1c(-c2[nH]c3ccc(N4CCN(C(=O)CN5CCC(F)C5)CC4)nc3c2C(C)C)cn2ncnc2c1C (stereo not drawn) [Example 917]
- IC50 (human TLR8; [12]): 2.9 nM
- IC50 (human TLR9; [13]): 43.2 µM

Molecule: Cc1c(-c2[nH]c3ccc(N4CCN(C(=O)CN5CC6(CCO6)C5)CC4)nc3c2C(C)C)cn2ncnc2c1C [Example 918]
- IC50 (human TLR8; [12]): 6.3 nM
- IC50 (human TLR9; [13]): 20.6 µM

Further lines, results first:

- IC50 (human TLR8; [7]): 3.5 nM
- IC50 (human TLR9; [8]): 0.838 µM
- IC50 (human TLR7; [6]): 1.5 nM
Molecule: CNC1CCC(c2ccc3[nH]c(-c4cn5ncnc5c(C)c4C)c(C(C)C)c3n2)CC1 (single isomer, unassigned) [Example 367, 4-(2-(7,8-dimethyl-[1,2,4]triazolo[1,5-a]pyridin-6-yl)-3-isopropyl-1H-pyrrolo[3,2-b]pyridin-5-yl)-N-methylcyclohexanamine]

- IC50 (human TLR8; [7]): 1.3 nM
- IC50 (human TLR9; [8]): 0.402 µM
- IC50 (human TLR7; [6]): 0.46 nM
Molecule: CNC1CCC(c2ccc3[nH]c(-c4cn5ncnc5c(C)c4C)c(C(C)C)c3n2)CC1 (single isomer, unassigned) [Example 369, 4-(2-(7,8-dimethyl-[1,2,4]triazolo[1,5-a]pyridin-6-yl)-3-isopropyl-1H-pyrrolo[3,2-b]pyridin-5-yl)-N-methylcyclohexanamine]

- IC50 (human TLR8; [1]): 0.74 nM
- IC50 (human TLR9; [2]): 1.53 µM
- IC50 (human TLR7; [3]): 0.89 nM
Molecule: Cc1c(-c2[nH]c3ccc(C4CCC(N(C)C5COC5)CC4)nc3c2C(C)C)cn2ncnc2c1C (single isomer, unassigned) [Example 424, N-(4-(2-(7,8-dimethyl-[1,2,4]triazolo[1,5-a]pyridin-6-yl)-3-isopropyl-1H-pyrrolo[3,2-b]pyridin-5-yl)cyclohexyl)-N-methyloxetan-3-amine]

- IC50 (human TLR8; [1]): 14 nM
- IC50 (human TLR9; [2]): 15.1 µM
- IC50 (human TLR7; [3]): 13 nM
Molecule: Cc1c(-c2[nH]c3ccc(C4CCC(N(C)C5COC5)CC4)nc3c2C(C)C)cn2ncnc2c1C (single isomer, unassigned) [Example 430, N-(4-(2-(7,8-dimethyl-[1,2,4]triazolo[1,5-a]pyridin-6-yl)-3-isopropyl-1H-pyrrolo[3,2-b]pyridin-5-yl)cyclohexyl)-N-methyloxetan-3-amine]

- IC50 (human TLR8; [1]): 7.1 nM
- IC50 (human TLR9; [2]): 9.5 µM
Molecule: Cc1c(-c2[nH]c3ccc(C4CCC(N(C)Cc5ncccn5)CC4)nc3c2C(C)C)cn2ncnc2c1C (stereo not drawn) [Example 417]

- IC50 (human TLR8; [1]): 3.9 nM
- IC50 (human TLR9; [2]): 2.87 µM
Molecule: Cc1c(-c2[nH]c3ccc(C4CCC(N(C)Cc5ncccn5)CC4)nc3c2C(C)C)cn2ncnc2c1C (stereo not drawn) [Example 418]

- IC50 (human TLR8; [1]): 5.5 nM
- IC50 (human TLR9; [2]): 2.18 µM
Molecule: Cc1c(-c2[nH]c3ccc(C4CCC(N5CC6(COC6)C5)CC4)nc3c2C(C)C)cn2ncnc2c1C (stereo not drawn) [Example 435]

- IC50 (human TLR8; [1]): 27 nM
- IC50 (human TLR9; [2]): 8.94 µM
Molecule: Cc1c(-c2[nH]c3ccc(C4CCC(N5CC(C#N)C5)CC4)nc3c2C(C)C)cn2ncnc2c1C (stereo not drawn) [Example 436]

- IC50 (human TLR8; [1]): 11 nM
- IC50 (human TLR9; [2]): 3.75 µM
Molecule: Cc1c(-c2[nH]c3ccc(C4CCC(N5CC6(COC6)C5)CC4)nc3c2C(C)C)cn2ncnc2c1C (stereo not drawn) [Example 437]

- IC50 (human TLR8; [1]): 57 nM
- IC50 (human TLR7; [3]): 15 nM
Molecule: Cc1c(-c2[nH]c3ccc(C4CCC(N5CCN(C)C(=O)C5)CC4)nc3c2C(C)C)cn2ncnc2c1C (stereo not drawn) [Example 443]

- IC50 (human TLR8; [1]): 99 nM
- IC50 (human TLR7; [3]): 46 nM
Molecule: Cc1c(-c2[nH]c3ccc(C4CCC(N(CCO)CC(=O)N(C)C)CC4)nc3c2C(C)C)cn2ncnc2c1C (stereo not drawn) [Example 468]

Reference: patent publication US10544143B2, “4-azaindole compounds” (BRISTOL-MYERS SQUIBB COMPANY, priority 2017, dated 2020)
